Assay results published in PubChem BioAssay (NCI).
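Compound exposure: 48 hours, 5 concentrations, 96-well plates. Abbreviation: GI50, concentration required for 50% inhibition of growth. The concentration for full growth arrest is given as TGI.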

How the values were obtained:
Assay in all cases: DTP human tumour cell line panel, 48 h
[1] = test system: SF-268 CNS
[2] = test system: SK-OV-3 ovarian
[3] = test system: M14 melanoma
[4] = test system: NCI-H23 lung
[5] = test system: UACC-257 melanoma
[6] = test system: MDA-MB-231 breast
[7] = test system: UO-31 renal
[8] = test system: HCT-15 colon
[9] = test system: SK-MEL-5 melanoma
[10] = test system: SK-MEL-2 melanoma
[11] = test system: COLO 205 colon
[12] = test system: BT-549 breast
[13] = test system: UACC-62 melanoma
[14] = test system: A549 NSCLC
[15] = test system: OVCAR-8 ovarian
[16] = test system: NCI-H226 lung
[17] = test system: HOP-92 NSCLC
[18] = test system: SW-620 colon
[19] = test system: HOP-62 NSCLC
[20] = test system: T-47D breast
[21] = test system: OVCAR-4 ovarian
[22] = test system: RPMI-8226 leukemia
[23] = test system: MDA-MB-468 breast
[24] = test system: SN12C renal
[25] = test system: LOX IMVI melanoma
[26] = test system: HCT-116 colon
[27] = test system: 786-0 renal
[28] = test system: NCI-H460 lung
[29] = test system: HL-60(TB) leukemia
[30] = test system: CCRF-CEM leukemia
[31] = test system: SK-MEL-28 melanoma
[32] = test system: OVCAR-3 ovarian
[33] = test system: SNB-75 CNS
[34] = test system: SR leukemia
[35] = test system: SF-539 CNS
[36] = test system: HCC-2998 colon
[37] = test system: A498 renal
[38] = test system: RXF 393 renal
[39] = test system: NCI/ADR-RES ovarian
[40] = test system: MALME-3M melanoma
[41] = test system: MOLT-4 leukemia
[42] = test system: KM12 colon
[43] = test system: PC-3 prostate
[44] = test system: CAKI-1 renal
[45] = test system: NCI-H522 lung
[46] = test system: SF-295 CNS
[47] = test system: TK-10 renal
[48] = test system: DU-145 prostate
[49] = test system: OVCAR-5 ovarian
[50] = test system: IGROV1 ovarian
[51] = test system: MDA-MB-435
[52] = test system: U251 CNS
[53] = test system: K-562 leukemia
[54] = test system: ACHN renal
[55] = test system: HT29 colon
[56] = test system: MCF7 breast
[57] = test system: SNB-19 CNS
[58] = test system: EKVX NSCLC

## CC(C)N=C([Se])NC(=O)c1ccccc1
[1]
  GI50: 2900 nM
  TGI: 8.27 µM
[2]
  GI50: 426 nM
  TGI: 1300 nM
[3]
  GI50: 1840 nM
  TGI: 3.65 µM
[4]
  GI50: 1930 nM
  TGI: 4.13 µM
[5]
  GI50: 1920 nM
  TGI: 4.06 µM
[6]
  GI50: 2670 nM
  TGI: 6.49 µM
[7]
  GI50: 1640 nM
  TGI: 3000 nM
[8]
  GI50: 1850 nM
  TGI: 3.63 µM
[9]
  GI50: 1880 nM
  TGI: 3.67 µM
[10]
  GI50: 2080 nM
  TGI: 4.88 µM
[11]
  GI50: 2490 nM
  TGI: 6.46 µM
[12]
  GI50: 1610 nM
  TGI: 3.55 µM
[13]
  GI50: 1960 nM
  TGI: 4.07 µM
[14]
  GI50: 3.11 µM
  TGI: 34.8 µM
[15]
  GI50: 1880 nM
  TGI: 3.56 µM
[16]
  GI50: 2110 nM
  TGI: 5.94 µM
[17]
  GI50: 1950 nM
  TGI: 4.36 µM
[18]
  GI50: 2060 nM
  TGI: 4.63 µM
[19]
  GI50: 2030 nM
  TGI: 5.19 µM
[20]
  GI50: 1980 nM
  TGI: 4.52 µM
[21]
  GI50: 1750 nM
  TGI: 3.14 µM
[22]
  GI50: 2640 nM
  TGI: 7.83 µM
[23]
  GI50: 1720 nM
  TGI: 3.61 µM
[24]
  GI50: 1820 nM
  TGI: 3.29 µM
[25]
  GI50: 1850 nM
  TGI: 3.94 µM
[26]
  GI50: 1880 nM
  TGI: 3.49 µM
[27]
  GI50: 1800 nM
  TGI: 3.25 µM
[28]
  GI50: 2930 nM
  TGI: 11.6 µM
[29]
  GI50: 2070 nM
  TGI: 5.37 µM
[30]
  GI50: 3.05 µM
  TGI: 10.8 µM
[31]
  GI50: 1940 nM
  TGI: 3.62 µM
[32]
  GI50: 1970 nM
  TGI: 3.57 µM
[33]
  GI50: 1690 nM
  TGI: 3.41 µM
[34]
  GI50: 2060 nM
  TGI: 5.23 µM
[35]
  GI50: 1800 nM
  TGI: 3.21 µM
[36]
  GI50: 1920 nM
  TGI: 3.67 µM
[37]
  GI50: 2850 nM
  TGI: 8.02 µM
[38]
  GI50: 1880 nM
  TGI: 3.68 µM
[39]
  GI50: 2120 nM
  TGI: 4.89 µM
[40]
  GI50: 1630 nM
  TGI: 3.09 µM
[41]
  GI50: 2330 nM
  TGI: 6.07 µM
[42]
  GI50: 3000 nM
  TGI: 8.39 µM
[43]
  GI50: 2010 nM
  TGI: 4.37 µM
[44]
  GI50: 1670 nM
  TGI: 3.04 µM
[45]
  GI50: 1640 nM
  TGI: 3.17 µM
[46]
  GI50: 1860 nM
  TGI: 5.21 µM
[47]
  GI50: 1700 nM
  TGI: 3.17 µM
[48]
  GI50: 1950 nM
  TGI: 3.6 µM
[49]
  GI50: 1970 nM
  TGI: 3.72 µM
[50]
  GI50: 1760 nM
  TGI: 3.49 µM
[51]
  GI50: 2690 nM
  TGI: 8.5 µM
[52]
  GI50: 1860 nM
  TGI: 3.51 µM
[53]
  GI50: 2760 nM
  TGI: 8.45 µM
[54]
  GI50: 1920 nM
  TGI: 3.41 µM
[55]
  GI50: 2340 nM
  TGI: 5.99 µM
[56]
  GI50: 1700 nM
  TGI: 3.66 µM
[57]
  GI50: 2910 nM
  TGI: 10.8 µM
[58]
  GI50: 1770 nM
  TGI: 3.32 µM
